Earlier results, collected in patent publication US7553503B2, “Phyto-nutraceutical synergistic composition for Parkinson's Disease” (priority 2006, dated 2009).
Values belong to the molecule of their own block, whether it stands above or below them.

How the values were obtained:
ischemic brain injury = conditions: transient focal ischemia
[1] = test system: bacterial resistance mechanism (multidrug pump); conditions: in vitro, with 5'-methoxyhydnocarpin
[2] = test system: HIV-1 viral long terminal repeat-directed gene expression
substantia nigra neurons = conditions: MPTP-induced
[3] = test system: brain mitochondria and membranes
mouse brain = conditions: pretreatment
[4] = test system: patients with early-stage Parkinson's disease
dopamine D1 receptors = dopamine D1 receptors (Homo sapiens, UniProt P21728)
dopamine D2 receptors = dopamine D2 receptors (Homo sapiens, UniProt P14416)
[5] = test system: alpha 1-adrenergic receptors
[6] = test system: alpha 2-adrenergic receptors
[7] = test system: dopamine and DOPAC in striatum, DA in hypothalamus; conditions: after administration
[8] = test system: patients with tardive dyskinesia; conditions: especially tardive dyskinesia for 5 years or less

dopamine D1 receptors, sequence (P21728 whole entry): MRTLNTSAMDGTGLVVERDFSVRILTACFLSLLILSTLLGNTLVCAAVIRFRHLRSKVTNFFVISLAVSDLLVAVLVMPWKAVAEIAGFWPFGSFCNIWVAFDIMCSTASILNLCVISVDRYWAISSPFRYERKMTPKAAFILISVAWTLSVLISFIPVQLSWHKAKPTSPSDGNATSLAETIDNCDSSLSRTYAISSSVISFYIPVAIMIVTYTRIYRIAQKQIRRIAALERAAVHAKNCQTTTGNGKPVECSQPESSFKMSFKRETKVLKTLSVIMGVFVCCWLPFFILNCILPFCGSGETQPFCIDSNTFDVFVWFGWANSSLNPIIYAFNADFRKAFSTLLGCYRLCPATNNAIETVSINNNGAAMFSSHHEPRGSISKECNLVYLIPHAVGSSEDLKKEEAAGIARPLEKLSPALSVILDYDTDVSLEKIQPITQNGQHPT
dopamine D2 receptors, sequence (P14416 whole entry): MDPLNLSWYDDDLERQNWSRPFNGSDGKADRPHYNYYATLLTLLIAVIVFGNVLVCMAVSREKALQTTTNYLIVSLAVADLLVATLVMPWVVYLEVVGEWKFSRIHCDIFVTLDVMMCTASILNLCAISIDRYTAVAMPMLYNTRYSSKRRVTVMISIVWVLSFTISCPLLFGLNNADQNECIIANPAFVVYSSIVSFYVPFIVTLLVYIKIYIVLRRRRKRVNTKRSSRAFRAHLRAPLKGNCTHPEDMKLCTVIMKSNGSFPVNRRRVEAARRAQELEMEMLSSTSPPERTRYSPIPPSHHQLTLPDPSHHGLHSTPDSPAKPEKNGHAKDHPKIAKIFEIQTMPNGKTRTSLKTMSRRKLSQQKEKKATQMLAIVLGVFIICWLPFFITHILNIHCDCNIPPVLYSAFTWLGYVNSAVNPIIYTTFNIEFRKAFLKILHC

Molecule: CC(C)(O)[C@@H]1CC[C@](C)([C@H]2[C@@H](O)C[C@@]3(C)[C@@H]4C[C@H](O[C@@H]5O[C@H](CO)[C@@H](O)[C@H](O)[C@H]5O)[C@H]5C(C)(C)[C@@H](O[C@@H]6OC[C@@H](O)[C@H](O)[C@H]6O)CC[C@@]56C[C@@]46CC[C@]23C)O1 [Astragaloside IV]
- infarct volume (ischemic brain injury): markedly and significantly reduced

Molecule: COc1ccc2cc3[n+](cc2c1OC)CCc1cc2c(cc1-3)OCO2 [Berberine]
- activity of Berberine alkaloids in the presence of 5'-MHC [1]: strongly potentiated

Molecule: CC1(C)CCC2=C(O1)c1ccccc1C(=O)C2=O [Beta-lapachone]
- inhibition of HIV-1 viral long terminal repeat-directed gene expression [2]: potent and selective inhibitor

Molecule: CC(C)=CCC[C@](C)(O[C@@H]1O[C@H](CO)[C@@H](O)[C@H](O)[C@H]1O)[C@H]1CC[C@]2(C)[C@@H]1[C@H](O)C[C@@H]1[C@@]3(C)CC[C@H](O)C(C)(C)[C@@H]3[C@@H](O[C@@H]3O[C@H](CO)[C@@H](O)[C@H](O)[C@H]3O)C[C@]12C [Ginsenoside Rg1]
- substantia nigra neurons loss (substantia nigra neurons): protect against substantia nigra neurons loss

Molecule: COc1cc2c(c(O)c1OC)-c1c(cc(OC)c(OC)c1OC)C[C@@H](C)[C@@H](C)C2 [Schisanhenol]
- peroxidative damages of brain mitochondria and membranes [3]: completely inhibited

Molecule: COc1cc2c(c(OC)c1OC)-c1c(cc(OC)c(OC)c1OC)C[C@](C)(O)[C@@H](C)C2 [Schizandrin]
- potency of protective action against oxidative stress relative to Schisanhenol [3]: weaker than that of Schisanhenol

Molecule: COc1cc2c(c(OC)c1OC)-c1c(cc3c(c1OC)OCO3)CC(C)C(C)C2 (stereo not drawn) [Schizandrins B]
- extent of lipid peroxidation in brain tissue (mouse brain): dose-dependent decrease

Molecule: COC1=C(OC)C(=O)C(C/C=C(\C)CC/C=C(\C)CC/C=C(\C)CC/C=C(\C)CC/C=C(\C)CC/C=C(\C)CC/C=C(\C)CC/C=C(\C)CC/C=C(\C)CCC=C(C)C)=C(C)C1=O [coenzyme Q10, Coenzyme Q10]
- disease progression [4]: can slow disease progression

- affinity for dopamine D1 receptors (dopamine D1 receptors): no affinity
- affinity for dopamine D2 receptors (dopamine D2 receptors): no affinity
- affinity for serotonin receptors (serotonin receptors): no affinity
- affinity for alpha 1-adrenergic receptors [5]: no affinity
- affinity for alpha 2-adrenergic receptors [6]: no affinity
Molecule: COc1cc2c(c(OC)c1OC)-c1c(cc(OC)c(OC)c1OC)C[C@](C)(O)[C@@H](C)C2 [schizandrol A]
- dopamine and its metabolite DOPAC (in striatum) and DA (in hypothalamus) [7]: Significant elevations

Molecule: Vitamin E
- severity of tardive dyskinesia [8]: appears to be effective
